Results: patent publication US9856290B2, “Glycopeptide compositions and uses thereof” (SUSSEX RESEARCH LABORATORIES INC., priority 2013, dated 2018)
Where a SMILES comes first, the peptide text is derived from it.

Assays:
[1] = tested on: Human Dermal Fibroblasts (KMST-6); experiment: Cell morphology (phase contrast images); type: cell-based; conditions: 5 μM
Description: KMST-6 cells (Japan Health Sciences Foundation, JCRB0433) were seeded at 7,000 cells/ml in 12-well tissue culture treated plates (Falcon, 353043) in complete media. The complete media consists of the following: MEM/EBSS (Hyclone, SH30024.01), 10% Heat-Inactivated FBS (Gibco, 10082-147), 1% L-Glutamine (Hyclone, SH30031.01), 1% Nucleosides (800 mg/L Adenosine, 850 mg/L Guanidine, 730 mg/L Cytidine, 730 mg/L Uridine and 240 mg/L Thymidine), 1% Penicillin/Streptomycin (HyClone, SV30010), 1% Sodium Pyruvate (HyClone, SH30239.01), 1% Non-Essential Amino Acids (Hyclone, SH30238.01) and 0.04% Gentamicin (Gibco, 15710-064). Cells were grown for 2 days prior to treatments. The media was aspirated and cells were washed with 1×PBS (Fisher, SH30256.01) and treated with 5 μM glycopeptides (GP001-1, GP002-3, GP002-7, GP003-9, GP004-3 and GP004-4), reference (Pal-KTTKS, CPC Scientific, 822197), and control (DMSO, Fisher, BP231-100) in serum-free media supplemented with 50 μg/mL Sodium Ascorbate (Sigma, A4034) and 80 μg/mL β-Aminopropionate Fumarate (Sigma, A3134). The treated cells were incubated at 37° C. and 5% CO2 for 48 and 72 hours. At each time point, images were taken with an Olympus Opti-Tech Scientific Microscope (Lumenera, Infinity 2 camera at 10× magnification) and changes in cell size and morphology were recorded. […]

fibroblast = conditions: under certain conditions; cited from earlier work
[2] = tested on: Human Dermal Fibroblasts (KMST-6); experiment: Cell Viability MTT Assay; type: cell-based; conditions: 5 μM, KMST-6, 48 and 72 hours; toxicity defined as viability less than 50% of control
Description: KMST-6 cells (Japan Health Sciences Foundation, JCRB0433) were seeded at 7,000 cells/ml in complete media. The complete media consists of the following: MEM/EBSS (Hyclone, SH30024.01), 10% Heat-Inactivated FBS (Gibco, 10082-147), 1% L-Glutamine (Hyclone, SH30031.01), 1% Nucleosides (800 mg/L Adenosine, 850 mg/L Guanidine, 730 mg/L Cytidine, 730 mg/L Uridine and 240 mg/L Thymidine), 1% Penicillin/Streptomycin (HyClone, SV30010), 1% Sodium Pyruvate (HyClone, SH30239.01), 1% Non-Essential Amino Acids (Hyclone, SH30238.01) and 0.04% Gentamicin (Gibco, 15710-064). Cells were grown for 2 days prior to treatments. […] The absorbance was measured with a microplate reader (Molecular Devices, SpectraMax M2e) at 570 nm. […]
To determine effects on cell viability as a measure of toxicity, 5 μM of the 6 exemplary glycopeptides were applied to Human Dermal Fibroblasts (KMST-6) as previously described. […] The absorbance was measured with a microplate reader (Molecular Devices, SpectraMax M2e) at 570 nm. Three or more independent experiments were performed and statistical significance was determined using One-way ANOVA (p<0.05). […]

cell confluence compared to control and glycopeptide treated cells ([1]; KMST-6): demonstrated decrease in cell confluence
Structure (SMILES): CCCCCCCCCCCCCCCC(=O)N[C@@H](CCCCN)C(=O)N[C@H](C(=O)N[C@H](C(=O)N[C@@H](CCCCN)C(=O)N[C@@H](CO)C(=O)O)[C@@H](C)O)[C@@H](C)O [Reference, Pal-KTTKS] (HELM PEPTIDE1{[CCCCCCCCCCCCCCCC(=O)[*:2]].K.T.T.K.S}$$$$V2.0)
toxicity as observed through phase-contrast morphology ([1]; KMST-6, 48 and 72 hours): visibly interfered with cell viability
fibroblast cell viability (fibroblast): decrease fibroblast cell viability
cell viability as a measure of toxicity (MTT assay) [2]: significant decrease in cell viability
